Values of other authors, collected in PMC4393105, “tRNA^Glu Increases the Affinity of Glutamyl-tRNA Synthetase for Its Inhibitor Glutamyl-Sulfamoyl-Adenosine, an Analogue of the Aminoacylation Reaction Intermediate Glutamyl-AMP: Mechanistic and Evolutionary Implications” (PLoS ONE, 2015).
pKd: −log10 of the molar value. Read-outs that look alike come from different tables or passages of the source.

Key:
PheRS from baker’s yeast = conditions: read-out: K d aa-AMP aaRS, cited from earlier work
[1] = target: ThrRS from yeast mitochodria; set-up: method as in PMID 22773845; conditions: read-out: K d aa-AMP aaRS; cited from earlier work
IleRS from E. coli = tested on: IleRS from E. coli; set-up: method as in earlier work; conditions: reviewed by Fersht, 1998, 48; cited from earlier work

Nc1ncnc2c1ncn2[C@@H]1O[C@H](COP(=O)(O)OC(=O)[C@@H](N)Cc2ccccc2)[C@@H](O)[C@H]1O [Phe-AMP]
pKd (PheRS from baker’s yeast; cognate aa-AMP): 8.30

Nc1ncnc2c1ncn2C1OC(COS(=O)(=O)NC(=O)[C@@H](N)CO)[C@@H](O)[C@H]1O (some centres unmarked) [Ser-AMS, Seryl-sulfamoyl-adenosine]
pKd [1]: 6.35

C[C@@H](O)[C@H](N)C(=O)NS(=O)(=O)OC[C@@H]1O[C@H](n2cnc3c(N)ncnc32)[C@@H](O)[C@H]1O [Thr-AMS, Threonyl-sulfamoyl-adenosine]
pKd [1]: 8.35

Nc1ncnc2c1ncn2[C@@H]1O[C@H](COP(=O)(O)OC(=O)[C@@H](N)Cc2ccc(O)cc2)[C@@H](O)[C@H]1O [Tyr-AMP, tyrosyl-AMP]
pKd (PheRS from baker’s yeast; non-cognate aa-AMP): 6.00

CC(C)[C@H](N)C(=O)OP(=O)(O)OC[C@H]1O[C@@H](n2cnc3c(N)ncnc32)[C@H](O)[C@@H]1O [Val-AMP, valyl-adenylate]
fold weaker affinity than Ile-AMP (IleRS from E. coli): This IleRS binds Val-AMP with a 150-fold weaker affinity than Ile-AMP.
